Data: patent US8288367B2, “Substituted estratriene derivatives as 17BETA HSD inhibitors” (Solvay Pharmaceuticals GmBH, priority 2006, dated 2012)

Tests used:
[1] = target: T1, recombinant human 17β-HSD2 (Homo sapiens, UniProt P37059); assay: Recombinant 17β-HSD2 assay (HPLC, 3H-estradiol conversion); assay type: biochemical; details: 50 nM estradiol, 1 mM β-NAD, read-out: Inhibition of rec. 17β-HSD2; for inhibition at 0.1 µM: 100 nM compound; for inhibition at 1 µM: 1 μm compound
T1 construct: made in house; host or cells: Sf9 insect cells (baculovirus, Bac to Bac Expression System)
T1 sequence (P37059 1-387): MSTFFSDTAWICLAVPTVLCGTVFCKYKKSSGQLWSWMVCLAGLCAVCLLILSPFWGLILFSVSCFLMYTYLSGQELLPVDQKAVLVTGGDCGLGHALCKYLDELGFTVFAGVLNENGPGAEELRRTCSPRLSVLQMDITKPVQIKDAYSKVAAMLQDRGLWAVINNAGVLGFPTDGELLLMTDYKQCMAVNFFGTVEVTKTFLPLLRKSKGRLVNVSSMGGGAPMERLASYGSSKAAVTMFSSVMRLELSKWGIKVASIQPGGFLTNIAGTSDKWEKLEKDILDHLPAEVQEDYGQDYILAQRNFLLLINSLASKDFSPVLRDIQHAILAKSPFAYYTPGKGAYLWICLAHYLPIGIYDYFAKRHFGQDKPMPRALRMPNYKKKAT
Experimental: 17β-HSD1 or 17β-HSD2 purification: Recombinant 17β-HSD1 and 17β-HSD2 baculoviruses were generated by the “Bac to Bac Expression System” (Invitrogen). Recombinant 17β-HSD1 or 17β-HSD2 bacmids were transfected to Sf9 insect cells using “Cellfectin Reagent” (Invitrogen). 60 h later cells were harvested; the fractions including 17β-HSD1 or 17β-HSD2 were isolated as described by Puranen et al. (1994). Aliquots were stored frozen until determination of enzymatic activity. Recombinant 17β-HSD2 assay: Recombinant 17β-HSD2 assay was performed as described for 17β-HSD1 but with following modifications: 6 μg/ml of recombinant protein homogenate, 50 nM Estradiol (Sigma, E8875) as a substrate, 800 000 cpm/ml ^3H-estradiol (PerkinElmer, NET317) as a tracer substrate and 1 mM β-NAD (Sigma N7004) as a co-factor were used. Total radioactivity for estrone and estradiol were determined in each sample and percent inhibition of estrone conversion by the respective inhibitor was calculated. For the calculation of % inhibition the following formula was used: [formula] Percent inhibition was calculated as follows: % inhibition=100−% conversion

[2] = target: T2, recombinant human 17β-HSD1 (Homo sapiens, UniProt P14061); assay: Recombinant 17β-HSD1 assay (HPLC, 3H-estrone conversion); assay type: biochemical; details: 30 nM estrone, 1 mM NADPH, 30 min RT, read-out: Inhibition of rec. 17β-HSD1; for inhibition at 0.1 µM: 100 nM compound; for inhibition at 1 µM: 0.5 h, 1 μm compound
T2 construct: made in house; host or cells: Sf9 insect cells (baculovirus, Bac to Bac Expression System)
T2 sequence (P14061 1-328): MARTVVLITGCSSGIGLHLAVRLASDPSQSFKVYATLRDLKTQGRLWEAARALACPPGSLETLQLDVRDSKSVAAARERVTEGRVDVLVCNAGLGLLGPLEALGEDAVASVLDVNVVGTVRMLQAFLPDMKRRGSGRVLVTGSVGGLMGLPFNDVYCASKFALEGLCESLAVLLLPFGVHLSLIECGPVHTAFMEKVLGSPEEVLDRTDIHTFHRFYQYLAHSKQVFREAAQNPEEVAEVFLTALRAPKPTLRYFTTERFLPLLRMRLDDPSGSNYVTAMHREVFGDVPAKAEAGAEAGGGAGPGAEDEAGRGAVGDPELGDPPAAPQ
Experimental: 17β-HSD1 or 17β-HSD2 purification: Recombinant 17β-HSD1 and 17β-HSD2 baculoviruses were generated by the “Bac to Bac Expression System” (Invitrogen). Recombinant 17β-HSD1 or 17β-HSD2 bacmids were transfected to Sf9 insect cells using “Cellfectin Reagent” (Invitrogen). 60 h later cells were harvested; the fractions including 17β-HSD1 or 17β-HSD2 were isolated as described by Puranen et al. (1994). Aliquots were stored frozen until determination of enzymatic activity.
Recombinant 17β-HSD1 assay: Recombinant protein homogenate (0.1 μg/ml) was incubated in 20 mM KH2PO4 pH 7.4 reaction buffer, including protease inhibitors (Complete Protease Inhibitor Cocktail tablet, Roche Diagnostics, 1697498), with 30 nM estrone (Sigma, E9750) as substrate, 800 000 cpm/ml ^3H-estrone (PerkinElmer, NET319001MC) as a tracer substrate, and 1 mM NADPH (Sigma, N1630) as a co-factor for 30 min at RT, in the presence of potential inhibitors at concentrations of 1 μM or 0.1 μM. Inhibitor stock solutions were prepared in DMSO. The enzyme reaction was stopped by addition of trichloroacetic acid (1% final concentration). Samples were centrifuged in a microtiter plate at 4000 rpm for 10 min. Supernatants were applied to reverse phase HPLC on a Waters Symmetry C18 column, equipped with a Waters Sentry Guard column. Isocratic HPLC runs were performed at RT at a flow rate of 1 ml/min of acetonitrile:water 48:52 as running solvent. Radioactivity was monitored in the eluate by a Packard Flow Scintillation Analyzer. Total radioactivity for estrone and estradiol were determined in each sample and percent inhibition of estradiol conversion by the respective inhibitor was calculated
For the calculation of % inhibition the following formula was used:
[formula] Percent inhibition was calculated as follows: % inhibition=100−% conversion

Structure (SMILES) | inhibition at 0.1 µM [1] | inhibition at 1 µM [1] | inhibition at 0.1 µM [2] | inhibition at 1 µM [2]
C[C@]12CC[C@@H]3c4ccc(B(O)O)cc4CC[C@H]3[C@@H]1[C@H](CCC(=O)NCc1ccc3c(c1)OCO3)CC2=O [Compound 34, [15beta-{3-[(1,3-benzodioxol-5-ylmethyl)amino]-3-oxopropyl}-17-oxoestra-1(10),2,4-trien-3-yl]boronic acid] | 3.2% | 0.4% | 47% | 65%
C[C@]12CC[C@@H]3c4ccc(B(O)O)cc4CC[C@H]3[C@@H]1[C@H](CCC(=O)N1CCCCC1)CC2=O [Compound 35, [17-oxo-15beta-(3-oxo-3-piperidin-1-ylpropyl)estra-1(10),2,4-trien-3-yl]boronic acid] | 4% | 1.5% | 57% | 56%
CCN(CC)C(=O)CC[C@@H]1CC(=O)[C@@]2(C)CC[C@@H]3c4ccc(B(O)O)cc4CC[C@H]3[C@H]12 [Compound 39, [15beta-[3-(diethylamino)-3-oxopropyl]-17-oxoestra-1(10),2,4-trien-3-yl]boronic acid] | 1.8% | -0.6% | 74% | 88%
C[C@]12CC[C@@H]3c4ccc(B(O)O)cc4CC[C@H]3[C@@H]1[C@H](CCC(=O)Nc1ccc3c(c1)OCO3)CC2=O [Compound 45, [15beta-[3-(1,3-benzodioxol-5-ylamino)-3-oxopropyl]-17-oxoestra-1(10),2,4-trien-3-yl]boronic acid] | -1% | -1.1% | 49% | 66%
C[C@]12CC[C@@H]3c4ccc(B(O)O)cc4CC[C@H]3[C@@H]1[C@@H](CCCC(=O)N1CCOCC1)CC2(F)F [Compound 47, [17,17-difluoro-15alpha-(4-morpholin-4-yl-4-oxobutyl)estra-1(10),2,4-trien-3-yl]boronic acid] | 3.8% | 12.9% | 10% | 61%
C[C@]12CC[C@@H]3c4ccc(B(O)O)cc4CC[C@H]3[C@@H]1[C@@H](CCCC(=O)NCc1ccc3c(c1)OCO3)CC2(F)F [Compound 50, [15alpha-{4-[(1,3-benzodioxol-5-ylmethyl)amino]-4-oxobutyl}-17,17-difluoroestra-1(10),2,4-trien-3-yl]boronic acid] | 8% | 32.8% | 40% | 57%
COc1ccc(CCN(C)C(=O)CCC[C@H]2CC(F)(F)[C@@]3(C)CC[C@@H]4c5ccc(B(O)O)cc5CC[C@H]4[C@H]23)cc1OC [Compound 51, [15alpha-(4-{[2-(3,4-dimethoxyphenyl)ethyl](methyl)amino}-4-oxobutyl)-17,17-difluoroestra-1(10),2,4-trien-3-yl]boronic acid] | 2.8% | 7.8% | 37% | 62%
C[C@]12CC[C@@H]3c4ccc(B(O)O)cc4CC[C@H]3[C@@H]1[C@@H](CCCC(=O)NCc1ccccc1)CC2(F)F [Compound 54, [15alpha-[4-(benzylamino)-4-oxobutyl]-17,17-difluoroestra-1(10),2,4-trien-3-yl]boronic acid] | 7.6% | 25.2% | 41% | 58%
Cc1cnc(NC(=O)CC[C@@H]2CC(F)(F)[C@@]3(C)CC[C@@H]4c5ccc(B(O)O)cc5CC[C@H]4[C@H]23)s1 [Compound 58, [17,17-difluoro-15β-{3-[(5-methyl-1,3-thiazol-2-yl)amino]-3-oxopropyl}estra-1(10),2,4-trien-3-yl]boronic acid] | 6.8% | 11.6% | 23% | 55%
C[C@]12CC[C@@H]3c4ccc(B(O)O)cc4CC[C@H]3[C@@H]1[C@H](CCC(=O)NC1CCCCC1)CC2(F)F [Compound 59, [15beta-[3-(cyclohexylamino)-3-oxopropyl]-17,17-difluoroestra-1(10),2,4-trien-3-yl]boronic acid] | 0.6% | 15.2% | 69% | 84%
C[C@]12CC[C@@H]3c4ccc(B(O)O)cc4CC[C@H]3[C@@H]1[C@H](CCC(=O)NCc1cccnc1)CC2(F)F [Compound 62, [17,17-Difluoro-15beta-{3-oxo-3-[(pyridin-3-ylmethyl)amino]propyl}estra-1(10),2,4-trien-3-yl]boronic acid] | 6.2% | 8.3% | 36% | 56%
C[C@]12CC[C@@H]3c4ccc(B(O)O)cc4CC[C@H]3[C@@H]1[C@H](CCC(=O)NCc1ccc(F)cc1F)CC2(F)F [Compound 65, [15beta-{3-[(2,4-difluorobenzyl)amino]-3-oxopropyl}-17,17-difluoroestra-1(10),2,4-trien-3-yl]boronic acid] | 5.8% | 9.8% | 32% | 63%
C[C@]12CC[C@@H]3c4ccc(B(O)O)cc4CC[C@H]3[C@@H]1[C@H](CCC(=O)Nc1ccc3c(c1)OCO3)CC2(F)F [Compound 74, [15beta-[3-(1,3-benzodioxol-5-ylamino)-3-oxopropyl]-17,17-difluoroestra-1(10),2,4-trien-3-yl]boronic acid] | 4.9% | 5.5% | 55.6% | 71.4%
